{"source": "patent US8563614B2", "about": "“Use of treprostinil to treat neuropathic diabetic foot ulcers” (United Therapeutics Corporation, priority 2004, dated 2013)", "key": {"[1]": {"system": "patients with PAD, diabetes and inoperable ischemic foot ulcers", "assay": "open-label study of safety and efficacy in patients with PAD, diabetes and inoperable ischemic foot ulcers", "format": "in vivo", "description": "The purpose of this open-label study is to evaluate the safety and efficacy of treprostinil sodium, a stable prostacyclin analogue, in ten patients with PAD, diabetes and inoperable ischemic foot ulcers.\nTreprostinil sodium was administered as a continuous subcutaneous infusion beginning at 2.5 ng/Kg/Min and titrated to highest tolerated dose for 12 weeks. Patients were monitored for adverse events, wound healing, skin perfusion pressure and ischemic rest pain."}, "[2]": {"system": "diabetics with non-healing wounds in critically ischemic lower extremities", "assay": "case-controlled trial in diabetic patients with recalcitrant lower extremity wounds: peri-wound TcPO2 and laser Doppler", "format": "in vivo, human", "description": "A case-controlled trial examining the effects of treprostinil sodium (Remodulin®), by continuous subcutaneous infusion, was performed in diabetic patients with recalcitrant lower extremity wounds. The known vasodilator and platelet-aggregation inhibitor properties of treprostinil sodium warranted its evaluation as an adjuvant to wound healing in ischemic extremities. The primary endpoints were wound healing and limb salvage. Amongst the secondary endpoints were resting peri-wound transcutaneous oximetry (TcPO2) and laser Doppler analysis (LD) and the response of TcPO2 and LD to an oxygen challenge at ambient or elevated pressure. If treprostinil sodium reduces inflow resistance distal to the pre-capillary sphincter, the ΔpO2 between the hypoxic wound center and the inflow blood should increase both in magnitude and in the slope of that difference. This would be the physiologic basis for the augmentation of the hypoxic signal.\nThe seven enrolled patients were diabetics with non-healing wounds present (>3 months) in critically ischemic lower extremities (Fontaine Stage III-IV or Rutherford Stage 4, 5 or 6). The treprostinil sodium (Remodulin®) was given by continuous subcutaneous infusion for the study period of 6 weeks. Candidacy for hyperbaric oxygen treatment was an exclusion criterion (patient refusal, logistical constraints or a recently completed HBO2 course). […]"}, "[3]": {"system": "diabetic neuropathy patients having at least one ulcer present on a foot", "assay": "administration to humans with diabetic neuropathy suffering from foot ulcers", "format": "in vivo", "settings": "continuous subcutaneous infusion, 2.5 ng/kg/min raised weekly to target dose, 12 weeks", "description": "Diabetic neuropathy patients having at least one ulcer (i.e., small sore or area of tissue gangrene) present on a foot are dosed with increasing amounts of Treprostinil over 12 weeks. The medication is delivered by a small pump that is connected to a catheter placed under the skin. In this manner, increasing dosages of Treprostinil are administered to patients by chronic continuous subcutaneous infusion.\nSpecifically, a 1.0 mg/mL formulation of Treprostinil sodium (REMODULIN®) is administered subcutaneously using a standard micro-infusion, positive-pressure infusion pump designed for subcutaneous drug delivery (Mini-Med). Patients receive an initial dose of 2.5 ng/kg/min of study drug. If, in a given patient, a dose of 2.5 ng/kg/min is not tolerated (e.g., persistent headache, nausea, emesis, restlessness, anxiety or severe pain at infusion site that cannot be adequately managed by medication or topical treatment), the dose is reduced to 1.25 ng/kg/min. Patients are maintained at 2.5 ng/kg/min (or 1.25 ng/kg/min if 2.5 ng/kg/min is not tolerated) during Week 1. After that, the dose is raised by 2.50 ng/kg/min each week until not tolerated or once a target dose is reached.\nDosing is increased weekly unless not tolerated by the patient. […] One example of a target dose is 15 ng/kg/min. The minimum dose is usually not less than 0.625 ng/kg/min. […]"}, "[4]": {"system": "human pulmonary arterial smooth muscle cells", "settings": "Clapp et al. 2002; cited from earlier work"}, "[5]": {"system": "human alveolar macrophages", "settings": "Raychaudhuri et al. 2002; cited from earlier work"}, "[6]": {"system": "patients with class III or class IV heart failure", "settings": "Patterson et al. 1995; cited from earlier work"}, "[7]": {"settings": "of seven patients who completed the trial to-date, 12 weeks"}}, "data": [{"smiles": "CCCCC[C@H](O)CC[C@@H]1[C@H]2Cc3cccc(OCC(=O)O)c3C[C@H]2C[C@H]1O", "note": "[Treprostinil sodium]", "values": [{"measurement": "effect on ischemic rest pain, skin perfusion, and wound healing", "setting": "[1]; conclusion of the study", "result": "positive effect"}, {"measurement": "increase in LD signals (thermal stimulation response)", "setting": "[2]; all patients with exception of one, on drug against before infusion", "result": 236, "unit": "%"}, {"measurement": "patients who demonstrated healing in wounds", "setting": "[2]; seven enrolled patients, continuous subcutaneous infusion for 6 weeks, wounds with mean healing arrest of 10.5 months", "result": "All patients but one"}]}, {"smiles": "CCCCC[C@H](O)CC[C@@H]1[C@H]2Cc3cccc(OCC(=O)O)c3C[C@H]2C[C@H]1O", "note": "[Treprostinil, 9-deoxy-2′,9-α-methano-3-oxa-4,5,6-trinor-3,7-(1′,3′-interphenylene)-13,14-dihydro-prostaglandin F1]", "values": [{"measurement": "serious adverse events attributed to treprostinil", "setting": "[1]; continuous subcutaneous infusion from 2.5 ng/Kg/Min titrated to highest tolerated dose, 12 weeks, seven patients completed", "result": "No serious adverse events"}, {"measurement": "drug related side effect reported", "setting": "[1]; continuous subcutaneous infusion, 12 weeks, seven patients completed", "result": "mild to moderate infusion site pain"}, {"measurement": "patients who experienced complete healing", "setting": "[1]; [7]", "result": "Two"}, {"measurement": "patients who experienced complete resolution of rest pain", "setting": "[1]; [7]", "result": "Five"}, {"measurement": "patients who experienced partial healing", "setting": "[1]; [7]", "result": "Two"}, {"measurement": "foot ulcers present before treatment", "setting": "[3]", "result": "reduction in the number, size and severity"}, {"measurement": "new foot ulcers associated with diabetic neuropathy", "setting": "[3]", "result": "fewer new foot ulcers"}, {"measurement": "proliferation of human pulmonary arterial smooth muscle cells", "setting": "[4]", "result": "inhibits proliferation"}, {"measurement": "inflammatory cytokine (tumor necrosis factor-α, interleukin-1β, interleukin-6, GM-CSF) secretion and gene expression", "setting": "[5]", "result": "inhibits"}, {"measurement": "vasodilator effects", "setting": "[6]", "result": "vasodilator effects"}]}]}
